Test: CO release through pig ear skin
Assay type: in vitro ADME
Procedure: Pig ear skin was purchased from a butcher and prepared immediately after delivery. Skin was carefully removed from the remaining fat and cartilage. Subsequent to the preparation, the skin was clamped between the top and bottom compartment of the test cell. Sealing was ensured by screw clamps and a sealing ring (FIG. 5A).
For the experiment 15 mg of tri-sodium Beck-1 ((Mo(CO)3(CNCH2CO2Na)3) were placed in the bottom compartment of the test cell and dissolved in 4 mL H2O. CO release was activated by adding 1 mL of iron(III)chloride solution (350 mg/mL) to the tri-sodium Beck-1. CO release through the pig skin was measured over a time period of 1000 minutes.
The data shown in FIG. 6 illustrates that CO release trough the pig skin is a slow process and reaches plateau in the raw data at around 500 minutes and stays at that plateau of 200 ppm CO for another 500 minutes until the end of the experiment. A plateau in the raw data means that the sensor consumption of CO is at the same rate as the release through the skin. To correct for the sensor consumption, CO release data of tri-sodium Beck-1 without any limiting membranes were used to calculate the consumption rate of the sensor.

[C-]#[O+] [CO, carbon monoxide]
CO release through the pig skin, maximum in the corrected data (15 mg tri-sodium Beck-1 activated with iron(III)chloride, at 1000 minutes, corrected for sensor consumption of CO): 340 ppm
CO release through the pig skin, plateau in the raw data (15 mg tri-sodium Beck-1 in 4 mL H2O activated with 1 mL iron(III)chloride solution (350 mg/mL), averaged raw data (n=2), plateau held until 1000 minutes): 200 ppm
time at which CO release through the pig skin reaches plateau in the raw data (15 mg tri-sodium Beck-1 in 4 mL H2O activated with 1 mL iron(III)chloride solution (350 mg/mL), raw data): around 500 minutes
